From ChEMBL document CHEMBL2396617, “Activity-lipophilicity relationship studies on P-gp ligands designed as simplified tariquidar bulky fragments” (Bioorg Med Chem Lett, 2013)
The source made the active and inactive calls. The calls are words filed in the database; no cut-off is given here.

How the values were obtained:
[1] = biological target: T1, Broad substrate specificity ATP-binding cassette transporter ABCG2 (Homo sapiens, UniProt Q9UNQ0); assay: Inhibition of BCRP (unknown origin) expressed in MDCK cells assessed as reduction of […] transport after 30 mins by fluorescence assay; type: cell-based
T1 sequence (Q9UNQ0 whole entry): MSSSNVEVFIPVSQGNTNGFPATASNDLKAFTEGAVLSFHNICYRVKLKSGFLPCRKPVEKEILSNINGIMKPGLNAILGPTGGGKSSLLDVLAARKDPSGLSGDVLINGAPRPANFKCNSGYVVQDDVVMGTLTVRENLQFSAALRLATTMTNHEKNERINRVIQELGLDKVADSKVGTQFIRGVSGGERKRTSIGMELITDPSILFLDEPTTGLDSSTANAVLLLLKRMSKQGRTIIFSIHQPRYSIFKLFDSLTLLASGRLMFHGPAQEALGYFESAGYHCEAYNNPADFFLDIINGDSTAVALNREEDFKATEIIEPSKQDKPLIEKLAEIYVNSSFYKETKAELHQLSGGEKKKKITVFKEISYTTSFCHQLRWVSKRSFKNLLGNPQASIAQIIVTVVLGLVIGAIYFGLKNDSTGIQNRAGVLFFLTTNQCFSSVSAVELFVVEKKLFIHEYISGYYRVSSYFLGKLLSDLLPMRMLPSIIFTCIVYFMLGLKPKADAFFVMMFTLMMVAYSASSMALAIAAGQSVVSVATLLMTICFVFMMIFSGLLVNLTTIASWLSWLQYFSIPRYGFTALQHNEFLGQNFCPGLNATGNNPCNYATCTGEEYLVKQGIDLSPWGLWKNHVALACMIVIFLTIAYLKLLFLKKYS

[2] = Inhibition of P-glycoprotein (unknown origin) expressed in MDCK cells assessed as reduction of calcein-AM transport after 30 mins by fluorescence assay; type: cell-based, Homo sapiens
[3] = biological target: Multidrug resistance-associated protein 1 (Homo sapiens, UniProt P33527); assay: Inhibition of MRP1 (unknown origin) expressed in MDCK cells assessed as reduction of calcein-AM transport after 30 mins by fluorescence assay; type: cell-based
[4] = test system: MDCK; assay: Activation of ATPase activity of P-glycoprotein (unknown origin) expressed in MDCK cells assessed as reduction of reduction of ATP level after 2 hrs by luminescence assay; type: cell-based; conditions: Homo sapiens
[5] = P-glycoprotein-mediated transport in human Caco2 cells assessed as efflux ratio of apparent permeability from basolateral to apical over apical to basolateral after 120 mins; type: ADME, cell-based; conditions: caco-2, 2 h

Chain of Multidrug resistance-associated protein 1 (P33527 whole entry): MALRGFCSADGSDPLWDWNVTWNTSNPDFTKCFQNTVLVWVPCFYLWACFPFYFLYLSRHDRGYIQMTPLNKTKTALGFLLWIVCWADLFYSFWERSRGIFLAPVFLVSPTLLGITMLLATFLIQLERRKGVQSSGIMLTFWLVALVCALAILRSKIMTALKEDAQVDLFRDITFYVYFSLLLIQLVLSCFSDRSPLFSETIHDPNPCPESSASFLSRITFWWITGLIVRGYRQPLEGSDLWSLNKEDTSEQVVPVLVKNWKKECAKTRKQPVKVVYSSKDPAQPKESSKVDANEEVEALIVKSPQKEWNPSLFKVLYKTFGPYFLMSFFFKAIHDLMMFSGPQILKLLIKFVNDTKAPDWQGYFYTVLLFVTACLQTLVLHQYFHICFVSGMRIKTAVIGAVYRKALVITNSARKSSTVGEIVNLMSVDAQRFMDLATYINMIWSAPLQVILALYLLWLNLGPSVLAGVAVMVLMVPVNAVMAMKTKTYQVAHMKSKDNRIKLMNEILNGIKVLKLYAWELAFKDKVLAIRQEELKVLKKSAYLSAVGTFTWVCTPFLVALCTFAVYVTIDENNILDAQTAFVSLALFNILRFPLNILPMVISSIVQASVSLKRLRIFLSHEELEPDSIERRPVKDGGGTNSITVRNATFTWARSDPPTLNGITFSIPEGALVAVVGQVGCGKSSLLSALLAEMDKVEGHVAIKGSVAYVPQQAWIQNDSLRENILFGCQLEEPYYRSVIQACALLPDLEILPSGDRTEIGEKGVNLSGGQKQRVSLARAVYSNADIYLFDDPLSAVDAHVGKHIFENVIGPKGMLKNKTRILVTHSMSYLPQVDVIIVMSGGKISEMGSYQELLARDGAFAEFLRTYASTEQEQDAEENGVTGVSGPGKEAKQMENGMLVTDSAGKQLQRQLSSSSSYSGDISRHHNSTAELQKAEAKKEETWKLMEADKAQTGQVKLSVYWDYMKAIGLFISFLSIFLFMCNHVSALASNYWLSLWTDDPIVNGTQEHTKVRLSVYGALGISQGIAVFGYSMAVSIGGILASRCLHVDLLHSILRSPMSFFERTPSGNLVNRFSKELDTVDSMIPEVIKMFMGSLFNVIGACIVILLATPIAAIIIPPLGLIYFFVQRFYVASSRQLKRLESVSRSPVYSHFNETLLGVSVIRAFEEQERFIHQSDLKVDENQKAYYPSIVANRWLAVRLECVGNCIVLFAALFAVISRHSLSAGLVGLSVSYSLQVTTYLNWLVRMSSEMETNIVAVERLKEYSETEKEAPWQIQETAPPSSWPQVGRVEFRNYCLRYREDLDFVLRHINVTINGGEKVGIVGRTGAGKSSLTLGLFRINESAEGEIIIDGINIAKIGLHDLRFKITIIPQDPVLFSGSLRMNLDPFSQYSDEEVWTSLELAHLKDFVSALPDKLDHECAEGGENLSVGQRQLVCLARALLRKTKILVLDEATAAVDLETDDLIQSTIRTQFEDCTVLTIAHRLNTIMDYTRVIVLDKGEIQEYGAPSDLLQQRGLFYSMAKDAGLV

SMILES | EC50 [1] [µM] | EC50 [2] [µM] | EC50 [3] [µM] | Activity [4] | Ratio [5]
COc1cc2c(cc1OC)CN(C(=O)COc1ccc3ccccc3n1)CC2 | > 100 | 67 | > 100 | inactive | 
COc1cc2c(cc1OC)CN(CCOc1ccc3ccccc3n1)CC2 | > 100 | 1.3 | > 100 | inactive | 4.6
COc1cc2c(cc1OC)CN(CCCCOc1ccc3ccccc3n1)CC2 | > 100 | 4.3 | > 100 | inactive | 4.2
COc1cc2c(cc1OC)CN(CCCOc1ccnc3ccccc13)CC2 | > 100 | 40 | > 100 | inactive | 
COc1cc2c(cc1OC)CN(CCCOc1ccc3ccccc3n1)CC2 | > 100 | 6.1 | > 100 | inactive | 4.4
COc1cc2c(cc1OC)CN(CCCCCOc1ccc3ccccc3n1)CC2 | > 100 | 1.2 | > 100 | inactive | 2.9
